Reference: patent publication US20240025912A1 (Merck Sharp & Dohme LLC, priority 2022, published 2024)

What follows are compounds tested against GST-RIPK1 (recombinant GST-RIPK1 kinase domain (residues 1-327)) (Homo sapiens (Human), UniProt Q13546) (assay: RIPK1-ADP-Glo Enzymatic Assay). Conditions: 25 nM GST-RIPK1, 300 μM ATP, 3 μM dephosphorylated-MBP, 30 min pre-incubation, 150 min reaction.
Assay type: biochemical
Description: The enzymatic activity of RIPK1 is measured using an assay derived from ADP-Glo kit (TMPromega), which provides a luminescent-based ADP detection system. Specifically, the ADP generated by RIPK1 kinase is proportionally detected as luminescent signals in a homogenous fashion. In this context, the assessment of the inhibitory effect of small molecules (EC50) is measured by the effectiveness of the compounds to inhibit the ATP to ADP conversion by RIPK1.
In this assay, the potency (EC50) of each compound was determined from a ten-point (1:3 serial dilution; top compound concentration of 100000 nM) titration curve using the following outlined procedure. To each well of a white ProxiPlus 384 well-plate, 30 nL of compound (1% DMSO in final assay volume of 3 μL) was dispensed, followed by the addition of 2 μL of 1× assay buffer (25 mM Hepes 7.3, 20 mM MgCl2, 50 mM NaCl, 1 mM DTT, 0.005% Tween20, and 0.02% BSA) containing 37.5 nM of GST-RIPK1 (recombinant GST-RIPK1 kinase domain (residues 1-327) enzyme produced from baculovirus-transfected Sf21 cells: MW 62 kDa). Plates were placed in an ambient temperature humidified chamber for a 30 min pre-incubation with compound. Subsequently, each reaction was initiated by the addition of 1 μL 1× assay buffer containing 900 μM ATP and 3 μM dephosphorylated-MBP substrate. The final reaction in each well of 3 μL consists of 25 nM of GST-RIPK1, 300 μM ATP, and 3 μM dephosphorylated-MBP. Kinase reactions were allowed to proceed for 150 min prior to adding ADP-Glo reagents per Promega's outlined kit protocol. Dose-response curves were generated by plotting percent effect (% product conversion; Y-axis) vs. Log 10 compound concentrations (X-axis). EC50 values were calculated using a non-linear regression, four-parameters sigmoidal dose-response model.

GST-RIPK1 (recombinant GST-RIPK1 kinase domain (residues 1-327)), sequence (Q13546 1-327): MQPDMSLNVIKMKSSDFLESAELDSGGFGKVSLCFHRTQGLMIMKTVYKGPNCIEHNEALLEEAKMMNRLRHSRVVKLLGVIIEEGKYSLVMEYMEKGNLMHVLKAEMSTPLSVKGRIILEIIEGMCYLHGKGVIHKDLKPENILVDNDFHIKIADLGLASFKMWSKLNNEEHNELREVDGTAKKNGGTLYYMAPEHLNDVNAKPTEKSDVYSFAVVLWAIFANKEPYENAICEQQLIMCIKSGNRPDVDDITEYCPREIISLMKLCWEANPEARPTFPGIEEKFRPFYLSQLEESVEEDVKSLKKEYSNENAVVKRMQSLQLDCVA

| SMILES | EC50 [nM] |
| --- | --- |
| N#CC12C3C4C1C1C2C3C41n1nc2n(c1=O)[C@H](c1cc(F)cc(F)c1)CC2 (stereo partly drawn) [Compound 1-21, 4-[(5S)-5-(3,5-difluorophenyl)-3-oxo-6,7-dihydro-3H-pyrrolo[2,1-c][1,2,4]triazol-2(5H)-yl]penta-cyclo[4.2.0.0~2,5~.0~3,8~.0~4.7~] octane-1-carbonitrile] | 141 |
| N#CC12CC(n3nc4n(c3=O)[C@H](c3cncc(Cl)c3)CC4)(C1)C2 [Compound 1-22, (S)-3-(5-(5-chloropyridin-3-yl)-3-oxo-6,7-dihydro-3H-pyrrolo[2,1-c][1,2,4]triazol-2(5H)-yl)bicyclo[1.1.1]pentane-1-carbonitrile] | 485 |
| N#CC12CC(n3nc4n(c3=O)[C@H](c3ccccc3F)CC4)(C1)C2 [Compound 1-23, 3-[(5S)-5-(2-fluorophenyl)-3-oxo-6,7-dihydro-3H-pyrrolo[2,1-c][1,2,4]triazol-2(5H)-yl]bicyclo[1.1.1]pentane-1-carbonitrile] | 31.8 |
| N#CC12CC(n3nc4n(c3=O)[C@H](c3cccc(F)c3)CC4)(C1)C2 [Compound 1-24, (S)-3-(5-(3-fluorophenyl)-3-oxo-6,7-dihydro-3H-pyrrolo[2,1-c][1,2,4]triazol-2(5H)-yl)bicyclo[1.1.1]pentane-1-caronitrile] | 29.7 |
| O=c1n(C23CCC(CC2)CC3)nc2n1[C@H](c1cc(F)cc(F)c1)CC2 [Compound 1-25, (5S)-2-(bicyclo[2.2.2]octan-1-yl)-5-(3,5-difluorophenyl)-2,5,6,7-tetrahydro-3H-pyrrolo[2,1-c][1,2,4]triazol-3-one] | 685 |
| COC12CCC(n3nc4n(c3=O)[C@H](c3cc(F)cc(F)c3)CC4)(CC1)C2 [Compound 1-26, (5S)-5-(3,5-difluorophenyl)-2-(4-methoxybicyclo[2.2.1]heptan-1-yl)-2,5,6,7-tetrahydro-3H-pyrrolo[2,1-c][1,2,4]triazol-3-one] | 377 |
| O=c1n(C23CCC(C(F)F)(CC2)C3)nc2n1[C@H](c1cc(F)cc(F)c1)CC2 [Compound 1-27, (5S)-2-[4-(difluoromethyl)bicyclo[2.2.1]heptan-1-yl]-5-(3,5-difluorophenyl)-2,5,6,7-tetrahydro-3H-pyrrolo[2,1-c][1,2,4]triazol-3-one] | 537 |
| O=c1n(C23CC(C(F)F)(C2)C3)nc2n1[C@H](c1cc(F)cc(F)c1)CC2 [Compound 1-28, (5S)-2-[3-(difluoromethyl)bicyclo[1.1.1]pentan-1-yl]-5-(3,5-difluorophenyl)-2,5,6,7-tetrahydro-3H-pyrrolo[2,1-c][1,2,4]triazol-3-one] | 25.9 |
| N#CC12CCC(n3nc4n(c3=O)[C@H](c3cc(F)cc(F)c3)CC4)(CC1)C2 [Compound 1-29, 4-[(5S)-5-(3,5-difluorophenyl)-3-oxo-6,7-dihydro-3H-pyrrolo[2,1-c][1,2,4]triazol-2(5H)-yl]bicyclo[2.2.1]heptane-1-carbonitrile] | 68 |
| N#CC12CCC(n3nc4n(c3=O)[C@H](c3ccccc3)CC4)(CC1)C2 [Compound 1-30, 4-[(5S)-3-oxo-5-phenyl-6,7-dihydro-3H-pyrrolo[2,1-c][1,2,4]triazol-2(5H)-yl]bicyclo[2.2.1]heptane-1-carbonitrile] | 87.4 |
| O=c1n(C23CC(C(F)F)(C2)C3)nc2n1[C@H](c1ccccc1)CC2 [Compound 1-31, (5S)-2-[3-(difluoromethyl)bicyclo[1.1.1]pentan-1-yl]-5-phenyl-2,5,6,7-tetrahydro-3H-pyrrolo[2,1-c][1,2,4]triazol-3-one] | 36.8 |
| CC(F)(F)C12CC(n3nc4n(c3=O)[C@H](c3ccccc3)CC4)(C1)C2 [Compound 1-32, (5S)-2-[3-(1,1-difluoroethyl)bicyclo[1.1.1]pentan-1-yl]-5-phenyl-2,5,6,7-tetrahydro-3H-pyrrolo[2,1-c][1,2,4]triazol-3-one] | 36.4 |
| O=c1n(C23CC(C(F)F)(C2)C3)nc2n1[C@H](c1cccc(F)c1)CC2 [Compound 1-33, (5S)-2-[3-(difluoromethyl)bicyclo[1.1.1]pentan-1-yl]-5-(3-fluorophenyl)-2,5,6,7-tetrahydro-3H-pyrrolo[2,1-c][1,2,4]triazol-3-one] | 30.4 |
| CC(F)(F)C12CC(n3nc4n(c3=O)[C@H](c3cccc(F)c3)CC4)(C1)C2 [Compound 1-34, (5S)-2-[3-(1,1-difluoroethyl)bicyclo[1.1.1]pentan-1-yl]-5-(3-fluorophenyl)-2,5,6,7-tetrahydro-3H-pyrrolo[2,1-c][1,2,4]triazol-3-one] | 26.9 |
| N#CC12CCC(n3nc4n(c3=O)[C@H](c3cc(F)cc(F)c3)CC4)(C1)C2 [Compound 1-35, 4-[(5S)-5-(3,5-difluorophenyl)-3-oxo-6,7-dihydro-3H-pyrrolo[2,1-c][1,2,4]triazol-2(5H)-yl]bicyclo[2.1.1]hexane-1-carbonitrile] | 49.7 |
| COC(=O)C12CC(n3nc4n(c3=O)[C@H](c3cc(F)cc(F)c3)CC4)(C1)C2(F)F [Compound 1-36, methyl 3-[(5S)-5-(3,5-difluorophenyl)-3-oxo-6,7-dihydro-3H-pyrrolo[2,1-c][1,2,4]triazol-2(5H)-yl]-2,2-difluorobicyclo[1.1.1]pentane-1-carboxylate] | 61.9 |
| O=c1n(C23CC(F)(C2)C3)nc2n1[C@H](c1ccc(F)cc1)CC2 [Compound 1-37, (5S)-2-(3-fluorobicyclo[1.1.1]pentan-1-yl)-5-(4-fluorophenyl)-2,5,6,7-tetrahydro-3H-pyrrolo[2,1-c][1,2,4]triazol-3-one] | 65.6 |
| N#CC12CC(n3nc4n(c3=O)[C@H](c3ccc(F)cc3)CC4)(C1)C2 [Compound 1-38, 3-[(5S)-5-(4-fluorophenyl)-3-oxo-6,7-dihydro-3H-pyrrolo[2,1-c][1,2,4]triazol-2(5H)-yl]bicyclo[1.1.1]pentane-1-carbonitrile] | 160 |
| N#CC12CCC(n3nc4n(c3=O)[C@H](c3ccccc3)CC4)(C1)C2 [Compound 1-39, 4-[(5S)-3-oxo-5-phenyl-6,7-dihydro-3H-pyrrolo[2,1-c][1,2,4]triazol-2(5H)-yl]bicyclo[2.1.1]hexane-1-carbonitrile] | 47 |
| O=c1n(C23CC(F)(C2)C3)nc2n1[C@H](c1c(F)cccc1F)CC2 [Compound 1-40, (S)-5-(2,6-difluorophenyl)-2-(3-fluorobicyclo[1.1.1]pentan-1-yl)-2,5,6,7-tetrahydro-3H-pyrrolo[2,1-c][1,2,4]triazol-3-one] | 34 |
| O=c1n(C23CC(Cl)(C2)C3)nc2n1[C@H](c1ccccc1)CC2 [Compound 1-41, (5S)-2-(3-chlorobicyclo[1.1.1]pentan-1-yl)-5-phenyl-2,5,6,7-tetrahydro-3H-pyrrolo[2,1-c][1,2,4]triazol-3-one] | 32.9 |
| O=c1n(C23CC(Cl)(C2)C3)nc2n1[C@H](c1cccc(F)c1)CC2 [Compound 1-42, (S)-2-(3-chlorobicyclo[1.1.1]pentan-1-yl)-5-(3-fluorophenyl)-2,5,6,7-tetrahydro-3H-pyrrolo[2,1-c][1,2,4]triazol-3-one] | 18.5 |
| N#CC12CC(n3nc4n(c3=O)[C@H](c3c(F)cccc3F)CC4)(C1)C2 [Compound 1-43, (S)-3-(5-(2,6-difluorophenyl)-3-oxo-6,7-dihydro-3H-pyrrolo[2,1-c][1,2,4]triazol-2(5H)-yl)bicyclo[1.1.1]pentane-1-carbonitrile] | 57.7 |
